Entries after “also recorded” stand apart in the source; their conditions may differ.
Legend:
[1] = test system: rats with oxygen-induced retinopathy (OIR); assay: Electroretinography in rats with oxygen-induced retinopathy (Example 1); assay type: in vivo, rat (Sprague-Dawley)
Description: Rats with oxygen-induced retinopathy (OIR) are a common model of human retinopathy of prematurity (ROP). Both OIR and ROP are characterized by abnormal retinal vasculature and by lasting dysfunction of the neural retina. Recent findings in OIR rats imply a causal role for the rods in the ROP disease process. However, experimental manipulation of rod function is necessary to establish this role conclusively. The retinoid composition N-Retinylacetamide (all trans), of chemical composition C22H33NO “the drug” was administered in the rat OIR model of ROP.
OIR was induced in four litters of Sprague-Dawley pups (N=24) by exposure to alternating periods of 50% and 10% oxygen from the day of birth (P0) to P14. The light cycle was 12 hr light (10-30 lux) and 12 hr dark; the light-to-dark transition coincided with each oxygen alternation. For 15 days beginning P7, within one hour of this transition, the first and fourth litters were administered 6 mg/kg drug IP; the second and third litters received only vehicle. At P20-22, when marked retinal vascular abnormality is generally observed, electroretinograms were recorded and receptor and post-receptor function evaluated. Treatment effects were evaluated by ANOVA.

[2] = test system: rats with oxygen-induced retinopathy (OIR); assay: ERG of rod and rod-mediated neural function in the dark-adapted retina of OIR rats (Example 2); assay type: in vivo, rat (Sprague-Dawley); settings: for magnitude of the rod response (Rmp3): p<0.001, most markedly at P30-32, vs vehicle; for recovery from phototransduction, latency to 50% recovery τ: double-flash paradigm
Experimental: (§1) Retinopathy was induced in Sprague-Dawley pups (N=46) by exposing them to alternating 24 hour periods of 50±1% and 10±1% oxygen from the day of birth to postnatal day (P) 14 as shown in FIG. 1. The light cycle was controlled at 12 hours 10-30 lux and 12 hours dark, except during test days when constant darkness was maintained. The light-to-dark transition was timed to coincide with each oxygen alternation. For two weeks, beginning on P7, during this transition, the first and fourth litters were injected intraperitoneally with 6 mg*kg-1 Ret-NH2; the second and third litters were administered an equivalent volume of vehicle (20% dimethyl sulfoxide, DMSO) alone. The injection schedule was designed to continue over the age range that begins with the onset of rapid increase in the rhodopsin content of the retina and lasts until rhodopsin content exceeds 50% of its adult amount (A. B. Fulton, and B. N. Baker, Invest Ophthalmol Vis Sci (1984) 25:647). […] The rats were assessed following a longitudinal design with tests at P20-22, P30-32, and P60-62. These dates were selected because they capture the height of vascular abnormality, a period of marked recovery, and an adult age, respectively (J. D. Akula, et al., Invest Ophthalmol Vis Sci (2007) 48:4351). At each test age, we studied the function of the neural retina and the morphology of the retinal vasculature using noninvasive techniques.
Shortly (0-2 days) after the final dose, the effects of the drug were assessed on the neural retina by electroretinography (ERG). The timing and intensity of the stimuli, which was designed to assess rod photoreceptor and rod-mediated post-receptor neural function, were under computer control. Two sets of experiments were performed. In the first, rod and rod-mediated neural function in the dark-adapted retina were assessed. In the second, the recovery of the rod photoreceptor from a bright, rhodopsin-bleaching stimulus was assessed. Each set of experiments was performed on approximately half of the subjects from each litter.
Sample traces were recorded these from a P30-32 VCM-treated rat; the sample records in panels D, E, and G were recorded in the same session. Characteristics of the rod photo-response were estimated from the ERG by fitting the Hood and Birch (D. C. Hood, and D. G. Birch, Vis Neurosci (1992) 8:107) formulation of the Lamb and Pugh (T. D. Lamb, and E. N. Pugh, Jr., J Physiol (1992) 449:719; E. N. Pugh, Jr., and T. D. Lamb, Biochim Biophys Acta (1993) 1141:111) model of the biochemical processes involved in the activation of photo-transduction to the a-wave:
P3(i,t)=Rmp3·(1−exp(−½·i·S·(t−td)^2))
In this equation, i is the intensity of the flash (R*) and t is elapsed time (seconds). The free parameters in the model, Rmp3, S, and td, were ensemble fitted using a square error minimization routine. Rmp3 is the amplitude (μV) of the saturated rod response; it is proportional to the magnitude of the dark current and depends upon the number of channels available for closure by light in the ROS (T. D. Lamb, and E. N. Pugh, Jr., J Physiol (1992) 449:719; E. N. Pugh, Jr., and T. D. Lamb, Biochim Biophys Acta (1993) 1141:111). S is a sensitivity (R*-1*sec-2) parameter that is related to the amplification constant, A, which summarizes the kinetics of the series of processes initiated by the photoisomerization of rhodopsin and resulting in closure of the channels in the plasma membrane of the photoreceptor. td is a brief delay (sec). Fitting of the model was restricted to the leading edge of the a-wave.
Following the study of the activation of phototransduction, deactivation of phototransduction was studied in the same rats using a double-flash paradigm. The time course of the rod response was derived to a green conditioning flash (CF) producing approximately 75 R*. This green flash, while producing an a-wave less than half of the saturated rod response, was nevertheless sufficient to fully suppress the dark current. […]

[3] = test system: rats with oxygen-induced retinopathy (OIR); assay: Recovery of the rod dark current from a rhodopsin-bleaching stimulus in OIR rats (Example 2); assay type: in vivo, rat (Sprague-Dawley); settings: 30 second bleaching exposure, 6 mg/kg IP, vs vehicle, t50 often extrapolated
Experimental: Retinopathy was induced in Sprague-Dawley pups (N=46) by exposing them to alternating 24 hour periods of 50±1% and 10±1% oxygen from the day of birth to postnatal day (P) 14 as shown in FIG. 1. The light cycle was controlled at 12 hours 10-30 lux and 12 hours dark, except during test days when constant darkness was maintained. The light-to-dark transition was timed to coincide with each oxygen alternation. For two weeks, beginning on P7, during this transition, the first and fourth litters were injected intraperitoneally with 6 mg*kg-1 Ret-NH2; the second and third litters were administered an equivalent volume of vehicle (20% dimethyl sulfoxide, DMSO) alone. […] The rats were assessed following a longitudinal design with tests at P20-22, P30-32, and P60-62. […]
Shortly (0-2 days) after the final dose, the effects of the drug were assessed on the neural retina by electroretinography (ERG). […] In the first, rod and rod-mediated neural function in the dark-adapted retina were assessed. In the second, the recovery of the rod photoreceptor from a bright, rhodopsin-bleaching stimulus was assessed. […]
In the second set of experiments, performed on cohorts (n=22), the recovery of the dark current was assessed from a 30 second light exposure estimated to bleach […] of rhodopsin. […] Following the bleaching exposure, the response to the PF was assessed at two minute intervals for 40-50 minutes. […]

[4] = test system: rats with oxygen-induced retinopathy (OIR); assay: Arteriolar tortuosity from fundus images analysed with RISA in OIR rats (Example 2); assay type: in vivo, rat (Sprague-Dawley)
Experimental: as §1
To assess whether VCM treatment affected the retinal vasculature, wide-field images of the ocular fundus were obtained that show the major vessels of the retina following each ERG session. […] The arterioles were analyzed with RISA (R. Gelman, M. E. Invest Ophthalmol Vis Sci (2005) 46: 4734) custom image analysis software. In agreement with previous reports (J. D. Akula, Invest Ophthalmol Vis Sci (2007) 48:4351; K. Liu, et al., Invest Ophthalmol Vis Sci (2006) 47:2639), the venules were little affected by the induction of retinopathy. […] For each rat, the mean blood vessel integrated curvature across both eyes (median 10 arterioles) was determined to provide a measure of arteriolar tortuosity, TA (radians*pixel^−1), a measure which agrees well with subjective assessments in human subjects (R. Gelman, M. E. Invest Ophthalmol Vis Sci (2005) 46: 4734). […] To test this, the value of TA at P20 was subtracted from the value of TA at P60 in each rat to determine the change in arteriolar tortuosity during the course of the experiment.

visual cycle = settings: mouse, dose 6 mg/kg; cited from earlier work
[5] = OIR rats, 6 mg/kg IP for 15 days from P7, ERG at P20-22, vs vehicle

## CC(=O)NC/C=C(C)/C=C/C=C(C)/C=C/C1=C(C)CCCC1(C)C [N-Retinylacetamide, N-Retinylacetamide (all trans)]
[1]; OIR rats after treatment, 6 mg/kg IP
  serious, negative alteration of the photoreceptor response: no evidence of serious, negative alteration
[1]; OIR rats, 6 mg/kg IP
  effect on responses originating in the inner retina: favorable effect
[1]; [5]
  amplification constant of phototransduction: Neither the maximal rod response nor the amplification constant of phototransduction were significantly changed
  maximal rod response: Neither the maximal rod response nor the amplification constant of phototransduction were significantly changed
[1]; OIR rats, 6 mg/kg IP, P20-22, vs vehicle
  post-receptor sensitivity (log s): unchanged
[1]; background that suppressed the saturating a-wave by ~90%, drug-treated vs vehicle-treated OIR rats, P20-22
  OFF response to a 400 ms stimulus: 2 ×
[1]; double-flash protocol, OIR rats, 6 mg/kg IP, P20-22, vs vehicle
  time-constant of deactivation of phototransduction: significantly shorter
[1]; drug-treated vs vehicle-treated OIR rats, 6 mg/kg IP, P20-22
  maximal scotopic b-wave amplitude: twice as large
[1]; same background, drug-treated vs vehicle-treated OIR rats, P20-22
  cone-driven response to 20 Hz flicker: 2 ×
[2]; 6 mg/kg IP
  unfavorable effects of rod function: No unfavorable effects
[2]; 6 mg/kg IP two weeks from P7, tests P20-22, P30-32, P60-62, ANOVA vs vehicle, listed as VCM, 6 mg/kg
  rod response sensitivity (S): no statistically significant effect; also recorded: not significant, but did trend lower at every age
[2]; 6 mg/kg IP, listed as Ret-NH2, 6 mg/kg
  magnitude of the rod response (Rmp3): larger
[2]; 6 mg/kg IP, listed as VCM, 6 mg/kg
  magnitude of the rod response (Rmp3): significantly increased
[2]; ERG b-wave, Naka-Rushton fit, 6 mg/kg IP, vs vehicle
  post-receptor sensitivity (log σ): not affected
[2]; ERG b-wave, Naka-Rushton fit, 6 mg/kg IP, vs vehicle, listed as Ret-NH2, 6 mg/kg
  saturated amplitude of the b-wave (Vm): larger
[2]; ERG b-wave, Naka-Rushton fit, 6 mg/kg IP, vs vehicle, listed as VCM, 6 mg/kg
  saturated amplitude of the b-wave (Vm): significantly (p<0.01) increased
[2]; P20-22 and P30-32
  rod-mediated retinal function (photoreceptor and post-receptor neurons): improved at the earliest test age (P20-22), and even more markedly improved at the second (P30-32)
[2]; 6 mg/kg IP, vs vehicle, listed as Ret-NH2, 6 mg/kg
  recovery from phototransduction, latency to 50% recovery τ: faster recovery
[2]; 6 mg/kg IP, vs vehicle, listed as VCM, 6 mg/kg
  recovery from phototransduction, latency to 50% recovery τ: significantly (p<0.01) faster
[2]; summary of ERG data
  effect on rod function: advantageous, if transient, effect
  post-receptor function: transient enhancement
[3]
  time to 50% recovery of the saturating rod photo-response after bleach (t50): not significantly altered overall
[4]; OIR rats, 6 mg/kg IP, P20-22 to P60-62, vs vehicle
  arteriolar tortuosity TA, main effect: no main effect
[4]; OIR rats, VCM regimen 6 mg/kg IP
  appearance of vascular abnormalities: did not prevent the appearance of vascular abnormalities
[4]; TA at P60 minus TA at P20, t-test p=0.001
  change in arteriolar tortuosity ΔP60-P20 (vascular recovery): more than twice the normal amount
[4]; group x age interaction p=0.002, VCM vs vehicle treated rats
  recovery of arteriolar tortuosity TA: recovered more rapidly
Visual cycle
  suppression of the visual cycle: approximately 50%
